In ChEMBL document CHEMBL5661974, “Pharmacologic characterization of a potent inhibitor of class I phosphatidylinositide 3-kinases” (Cancer Res, 2007):
The source made the active and inactive calls. No cut-off for these calls is given here.

Legend:
A2780 = experiment: Antiproliferative activity against human A2780 cells harboring PI3KCA/PTEN mutant assessed as cell growth inhibition incubated for 96 hrs by SRB assay; format: functional
HCT-116 [1] = experiment: Inhibition of recombinant PI3K in human HCT-116 cells assessed as increase in cleavage of PARP at 10 times of GI50 concentration incubated for 24 hrs by immunoblot analysis; format: cell-based
U-87 MG [2] = experiment: Antiproliferative activity against human U-87MG cells harboring PTEN deletion assessed as cell growth inhibition incubated for 96 hrs by SRB assay; format: functional, U-87MG ATCC
MDA-MB-435 = experiment: Antiproliferative activity against human MDA-MB-435 cells harboring AKT assessed as cell growth inhibition incubated for 96 hrs by SRB assay; format: functional
MDA-MB-468 = experiment: Antiproliferative activity against human MDA-MB-468 cells harboring PTEN deletion assessed as cell growth inhibition incubated for 96 hrs by SRB assay; format: functional
HCT-116 [3] = experiment: Antiproliferative activity against human HCT-116 cells harboring PI3KCA mutant assessed as cell growth inhibition incubated for 96 hrs by SRB assay; format: functional
U-87 MG [4] = details: Homo sapiens, time 24.0 hrs
Detroit 562 = experiment: Antiproliferative activity against human Detroit 562 cells harboring PI3KCA mutant assessed as cell growth inhibition incubated for 96 hrs by SRB assay; format: functional
PC-3 = experiment: Antiproliferative activity against human PC-3 cells harboring PTEN deletion assessed as cell growth inhibition incubated for 96 hrs by SRB assay; format: functional
HCT-116 [5] = experiment: Inhibition of recombinant PI3K in human HCT-116 cells assessed as increase in cleavage of PARP at 5 times of GI50 concentration incubated for 24 hrs by immunoblot analysis; format: cell-based
U-87 MG [6] = details: Homo sapiens, time 24.0 hrs; remark: listed apart in the source
A549 = experiment: Antiproliferative activity against human A549 cells harboring AKT assessed as cell growth inhibition incubated for 96 hrs by SRB assay; format: functional
IGROV-1 = experiment: Antiproliferative activity against human IGROV-1 cells harboring PI3KCA/PTEN mutant assessed as cell growth inhibition incubated for 96 hrs by SRB assay; format: functional

GI50 (A2780): 5.58 µM
GI50 (U-87 MG [2]): 9.8 µM
GI50 (MDA-MB-435): 15.3 µM
GI50 (MDA-MB-468): 6.5 µM
GI50 (HCT-116 [3]): 10.5 µM
GI50 (PC-3): 4.6 µM
GI50 (A549): 9 µM
SMILES: O=c1cc(N2CCOCC2)oc2c(-c3ccccc3)cccc12 [LY-294002]
inhibition (HCT-116 [1]): Active
inhibition (U-87 MG [4]): Active
GI50 (Detroit 562): 12.1 µM
inhibition (HCT-116 [5]): Active
inhibition (U-87 MG [6]): Active
GI50 (IGROV-1): 5.5 µM
